Results: US7172862B2, “FBL2-specific agents as modulators of Flaviviridae RNA replication” (Board of Regents, The University of Texas System, priority 2005, dated 2007)
Residue numbers refer to the chain shown, from its start. In names and notes the source's numbering stands.

Assays:
wild-type FBL2 = assay: Subcellular fractionation (cytosol/membrane) and immunoblot of transfected wild-type FBL2 in CHO-7 cells; format: cell-based; conditions: CHO-7 cells transfected with Myc-tagged wild-type FBL2; immunoblot anti-Myc
Description: (§1) Since prenylation of proteins normally facilitates their membrane association, we compared the localization of wild-type FBL2 and the mutant FBL2 that cannot be prenylated. CHO-7 cells transfected with a plasmid encoding NH2-terminal Myc-tagged wild-type FBL2 or mutant FBL2(C420S) were treated either with GGTI-286, a drug that inhibits both geranylgeranylation and farnesylation, or with FPTI-III, a drug that inhibits only farnesylation (Ye et al., 2003). Cells were fractionated into cytosol and membrane fractions, and immunoblotted with monoclonal anti-Myc IgG-9E10.

HCV RNA = HCV RNA level / replication in Huh7-HP replicon cells; format: cell-based; conditions: drug treatment
From the text: Further evidence that FBL2 is required for HCV RNA replication was obtained in experiments in which the level of FBL2 mRNA was reduced by transfection with duplex siRNA. An siRNA sequence targeting human FBL2 and having a sequence corresponding to positions 40-60 relative to the first nucleotide start codon, was transfected into Huh7-HP cells with TransMessenger transfection reagent (Qiagen) according to the manufacturer's protocol. […] We confirmed that these cells resemble the other HCV replicon cell lines in that HCV replication is inhibited by treatment with lovastatin (Ye et al., 2003) or an inhibitor of GGTase-I, GGTI-286. The NS5A derived from these cells interacts with FBL2. siRNA targeting FBL2 was and produced a 70% knockdown of FBL2 mRNA, an effect that was not observed when the cells were treated with a control siRNA containing 6 mismatched nucleotides.

HCV RNA replication = conditions: cited from earlier work; for overcoming of the inhibition of HCV RNA replication by lovastatin: added with lovastatin
mutant FBL2(C420S) = assay: Subcellular fractionation (cytosol/membrane) and immunoblot of transfected mutant FBL2(C420S) in CHO-7 cells; format: cell-based; conditions: CHO-7 cells transfected with Myc-tagged FBL2(C420S)
Description: as §1

HCV RNA replicon = assay: HCV RNA level in Huh7-K2040 replicon cells after transfection of FBL2 plasmids; format: cell-based; conditions: at least 80% of cells transfected
From the text: FBL2(67-423), which lacks an F-box, is likely to be nonfunctional, yet it still binds to NS5A. We therefore considered the possibility that overexpression of FBL2(67-423) may inhibit HCV RNA replication in a dominant-negative fashion by sequestering NS5A and preventing it from interacting with endogenous functional FBL2. To test this hypothesis, we transfected plasmids encoding wild-type and various mutant versions of FBL2 into Huh7-K2040 cells that harbor the HCV RNA replicon. As described above, we included only those experiments in which at least 80% of the cells were transfected. […] Importantly, transfected FBL2(67-423; C420S), which cannot bind to NS5A, had no effect on HCV RNA levels.

NS5A = conditions: Huh7 cells; anti-Flag pull-down of NS5A, anti-Myc blot
From the text: To determine the components of FBL2 that are required for interaction with the NH2-terminal half of NS5A, we made plasmids encoding the following proteins: NH2-terminal Myc-tagged wild-type FBL2, FBL2 with its CAAX box mutated so that it cannot be geranylgeranylated (C420S), FBL2 with its NH2-terminal F-box deleted (FBL2(67-423)), and FBL2 with both its F-box deleted and its CAAX box mutated (FBL2 67-423, C420S). These plasmids were transfected into Huh7 cells together with a plasmid encoding Flag and HA-tagged NS5A. Cell extracts were immunoprecipitated with anti-Flag beads to pull down NS5A and blotted with anti-HA and anti-Myc for detection of transfected NS5A and FBL2, respectively.

West Nile virus replicon = West Nile virus replicon RNA level in Huh7-WNV-2 cells after transfection of FBL2 plasmids; format: cell-based; conditions: conditions reducing HCV RNA by 75%

Q: With FPTI-III as the molecule, how does the “localization of wild-type FBL2 in cytosol and membrane fractions” value (wild-type FBL2) read?
A: not

Q: For `CC[C@H](C)C(=O)O[C@H]1C[C@@H](C)C=C2C=C[C@H](C)[C@H](CC[C@@H]3C[C@@H](O)CC(=O)O3)[C@H]21` [lovastatin], which HCV replication (HCV RNA) is on record?
A: inhibited

Q: What about the “HCV RNA replication” value (HCV RNA replication; Huh7 cells) of the same molecule?
A: disrupted

Q: For `CC(C)=CCCC(C)=CCCC(C)=CCO` [farnesol], which “overcoming of the inhibition of HCV RNA replication by lovastatin” value (HCV RNA replication) is on record?
A: not

Q: With `CC(C)=CCC/C(C)=C/CC/C(C)=C/CC/C(C)=C/CO` [geranylgeraniol] as the molecule, how does the “overcoming of the inhibition of HCV RNA replication by lovastatin” value (HCV RNA replication) read?
A: overcome

Q: With `COC(=O)[C@H](CC(C)C)NC(=O)c1ccc(NC[C@@H](N)CS)cc1-c1ccccc1` [GGTI-286] as the molecule, how does the “subcellular localization of the mutant FBL2 that lacks a CAAX motif” value (mutant FBL2(C420S)) read?
A: did not change

Q: What about the HCV replication (HCV RNA) of the same molecule?
A: inhibited

Q: What about the “localization of wild-type FBL2 in cytosol and membrane fractions” value (wild-type FBL2) of the same molecule?
A: distributed equally in cytosol and membrane fractions

B1: FBL2(50-423): alternative FBL2 N-terminal truncation (protein, UniProt Q9UKC9 50-423, looked up, fragment)
chain: SNWQRIDLFNFQTDVEGRVVENISKRCGGFLRKLSLRGCIGVGDSSLKTFAQNCRNIEHLNLNGCTKITDSTCYSLSRFCSKLKHLDLTSCVSITNSSLKGISEGCRNLEYLNLSWCDQITKDGIEALVRGCRGLKALLLRGCTQLEDEALKHIQNYCHELVSLNLQSCSRITDEGVVQICRGCHRLQALCLSGCSNLTDASLTALGLNCPRLQILEAARCSHLTDAGFTLLARNCHELEKMDLEECILITDSTLIQLSIHCPKLQALSLSHCELITDDGILHLSNSTCGHERLRVLELDNCLLITDVALEHLENCRGLERLELYDCQQVTRAGIKRMRAQLPHVKVHAYFAPVTPPTAVAGSGQRLCRCCVIL
Q: With B1 as the molecule, how does the “reduction of the level of HCV RNA” value (HCV RNA replicon) read?
A: dominant-negative affects

B2: wild-type FBL2: NH2-terminal Myc-tagged wild-type FBL2 expressed from a transfected plasmid (protein, UniProt Q9UKC9 1-423, looked up)
F-box/LRR-repeat protein 2: MVFSNNDEGLINKKLPKELLLRIFSFLDIVTLCRCAQISKAWNILALDGSNWQRIDLFNFQTDVEGRVVENISKRCGGFLRKLSLRGCIGVGDSSLKTFAQNCRNIEHLNLNGCTKITDSTCYSLSRFCSKLKHLDLTSCVSITNSSLKGISEGCRNLEYLNLSWCDQITKDGIEALVRGCRGLKALLLRGCTQLEDEALKHIQNYCHELVSLNLQSCSRITDEGVVQICRGCHRLQALCLSGCSNLTDASLTALGLNCPRLQILEAARCSHLTDAGFTLLARNCHELEKMDLEECILITDSTLIQLSIHCPKLQALSLSHCELITDDGILHLSNSTCGHERLRVLELDNCLLITDVALEHLENCRGLERLELYDCQQVTRAGIKRMRAQLPHVKVHAYFAPVTPPTAVAGSGQRLCRCCVIL
modifications: N-terminal Myc tag
notes: NH2-terminal Myc-tagged wild-type FBL2 expressed from a transfected plasmid
Q: Which “co-precipitation with NS5A” value (NS5A) does the source give for B2 here?
A: co-precipitated

Q: And the “reduction of the level of HCV RNA” value (HCV RNA replicon)?
A: did not change

B3: FBL2(67-423): FBL2 with its NH2-terminal F-box deleted; dominant-negative for HCV RNA replication (protein, UniProt Q9UKC9 67-423, looked up, fragment)
chain: RVVENISKRCGGFLRKLSLRGCIGVGDSSLKTFAQNCRNIEHLNLNGCTKITDSTCYSLSRFCSKLKHLDLTSCVSITNSSLKGISEGCRNLEYLNLSWCDQITKDGIEALVRGCRGLKALLLRGCTQLEDEALKHIQNYCHELVSLNLQSCSRITDEGVVQICRGCHRLQALCLSGCSNLTDASLTALGLNCPRLQILEAARCSHLTDAGFTLLARNCHELEKMDLEECILITDSTLIQLSIHCPKLQALSLSHCELITDDGILHLSNSTCGHERLRVLELDNCLLITDVALEHLENCRGLERLELYDCQQVTRAGIKRMRAQLPHVKVHAYFAPVTPPTAVAGSGQRLCRCCVIL
Q: With B3 as the molecule, how does the “co-precipitation with NS5A” value (NS5A) read?
A: co-precipitated

Q: And the “change in the level of West Nile virus replicon RNA” value (West Nile virus replicon)?
A: no significant change

B4: FBL2(67-423; C420S): FBL2 with both its F-box deleted and its CAAX box mutated (protein, UniProt Q9UKC9 67-423, looked up, fragment C420S)
chain: B3 chain with C354S
Q: Which “co-precipitation with NS5A” value (NS5A) does the source give for B4 here?
A: abrogated binding

Q: And the “reduction of the level of HCV RNA” value (HCV RNA replicon)?
A: no effect

B5: FBL2(100-423): alternative FBL2 N-terminal truncation (protein, UniProt Q9UKC9 100-423, looked up, fragment)
chain: AQNCRNIEHLNLNGCTKITDSTCYSLSRFCSKLKHLDLTSCVSITNSSLKGISEGCRNLEYLNLSWCDQITKDGIEALVRGCRGLKALLLRGCTQLEDEALKHIQNYCHELVSLNLQSCSRITDEGVVQICRGCHRLQALCLSGCSNLTDASLTALGLNCPRLQILEAARCSHLTDAGFTLLARNCHELEKMDLEECILITDSTLIQLSIHCPKLQALSLSHCELITDDGILHLSNSTCGHERLRVLELDNCLLITDVALEHLENCRGLERLELYDCQQVTRAGIKRMRAQLPHVKVHAYFAPVTPPTAVAGSGQRLCRCCVIL
Q: Which “reduction of the level of HCV RNA” value (HCV RNA replicon) does the source give for B5 here?
A: dominant-negative affects
